Here are results for 2 molecules from article PMC6272171 (2015).

Test [1] deals with a-core (DNA, G4) AGGGTTAGGGTTAGGGTTAGGG
Description: CD melting, 290 nm. The conditions noted are these: 50 mM Tris-HCl pH 7.4, 3.0 µM compound, 1.5 µM DNA.

The test system of test [2] is dsDNA (DNA, duplex) GGGAGGTTTCGC/GCGAAACCTCCC
In words: UV melting, 260 nm. Conditions: 100 mM KCl, 50 mM Tris-HCl pH 7.4, same value in NaCl.

Test [3] concerns a-core (DNA, G4) AGGGTTAGGGTTAGGGTTAGGG
Description: UV-Vis titration, Scatchard. The conditions noted are these: 50 mM Tris-HCl pH 7.4, 25 °C.

Test [4] has as its system a-coreTT (DNA, G4) AGGGTTAGGGTTAGGGTTAGGGTT
In words: UV-Vis titration, Scatchard. The conditions noted are these: 100 mM KCl; 50 mM Tris-HCl pH 7.4, 25 °C.

For test [5], the system named is TBA (DNA, G4) GGTTGGTGTGGTTGG
In words: UV-Vis titration, Scatchard. Conditions: 100 mM KCl; 50 mM Tris-HCl pH 7.4, 25 °C.

Test [6] relates to c-kit (DNA, G4) AGGGAGGGCGCTGGGAGGAGGAGGG
Description: UV-Vis titration, Scatchard. Conditions: 100 mM KCl; 50 mM Tris-HCl pH 7.4, 25 °C.

Test [7] concerns c-myc (DNA, G4) TGAGGGTGGGGAGGGTGGGGAA
Description: UV-Vis titration, Scatchard. Conditions: 100 mM KCl; 50 mM Tris-HCl pH 7.4, 25 °C.

Test [8] has as its system dsDNA (DNA, duplex) GGGAGGTTTCGC/GCGAAACCTCCC
In words: UV-Vis titration, Scatchard. The conditions noted are these: 100 mM KCl; 50 mM Tris-HCl pH 7.4, 25 °C; 0.60 ± 0.08 in 100 mM NaCl.

Test [9] relates to F21T (DNA, G4) GGGTTAGGGTTAGGGTTAGGG
In words: FRET melting. The conditions noted are these: 150 mM KCl; 100 mM Tris-HCl pH 7.4; 0.4 µM compound, 0.2 µM F21T.

Test [10] has as its system a-coreTT (DNA, G4) AGGGTTAGGGTTAGGGTTAGGGTT
In words: CD melting, 290 nm. Conditions: 100 mM KCl; 50 mM Tris-HCl pH 7.4; 3.0 µM compound, 1.5 µM DNA.

The subject of test [11] is TBA (DNA, G4) GGTTGGTGTGGTTGG
Description: CD melting, 290 nm. The conditions noted are these: 100 mM KCl; 50 mM Tris-HCl pH 7.4; 3.0 µM compound, 1.5 µM DNA.

Test [12] has as its system c-kit (DNA, G4) AGGGAGGGCGCTGGGAGGAGGAGGG
Description: CD melting, 262 nm. The conditions noted are these: 20 mM KCl; 50 mM Tris-HCl pH 7.4; 3.0 µM compound, 1.5 µM DNA.

The test system of test [13] is c-myc (DNA, G4) TGAGGGTGGGGAGGGTGGGGAA
In words: CD melting, 262 nm. The conditions noted are these: 5 mM KCl; 50 mM Tris-HCl pH 7.4; 3.0 µM compound, 1.5 µM DNA.

As for `CN(C)CCCN1C(=O)c2ccc3c4c(ccc(c24)C1=O)C(=O)N(CCCN(C)C)C3=O`, the “∆Tm” value is 5 °C in test [1] (100 mM KCl), 1 °C in test [1] (100 mM NaCl) and 12 °C in [2] (2:1 ligand:DNA). The K was 1.6 ± 0.2 × 10^6 M^-1 in test [3] (100 mM KCl); 0.73 ± 0.09 × 10^6 M^-1 in [3] (100 mM NaCl); 1.9 ± 0.3 × 10^6 M^-1 in [4]; 0.49 ± 0.04 × 10^6 M^-1 in test [5]; 0.74 ± 0.05 × 10^6 M^-1 in test [6]; 1.5 ± 0.2 × 10^6 M^-1 in [7]. In addition, in test [8], the K is recorded as 0.60 ± 0.04 × 10^6 M^-1.

On to `CN1CCCNC(=O)c2ccc(cc2)C(=O)NCCCN(C)CCCN2C(=O)c3ccc4c5c(ccc(c35)C2=O)C(=O)N(CCC1)C4=O`, for which the Tm increase in test [9] is 11 °C. In addition, the “∆Tm” value worked out at 15 °C in test [1] (100 mM KCl); 18 °C in [10]; 11 °C in [11]; 11 °C in test [12]; 15 °C in test [13]; 0.3 °C in test [2] (2:1 ligand:DNA in table (text: 1-fold)). For the same molecule, the K is recorded as 10 ± 0.5 × 10^6 M^-1 in test [3] (100 mM KCl); 1.0 ± 0.04 × 10^6 M^-1 in [3] (100 mM NaCl); 6.1 ± 0.4 × 10^6 M^-1 in [4]; 3.5 ± 0.2 × 10^6 M^-1 in [5]; 1.9 ± 0.18 × 10^6 M^-1 in [6]; 4.0 ± 0.3 × 10^6 M^-1 in [7].
